From the Kinase Knowledgebase extract (Sharma et al. 2016)
pIC50: −log10 of the molar value.

Target: PIK3CD (Human) (UniProt O00329)
Assay: Inhibition of PIK3CD Kinase Activity

Chain of PIK3CD (Human) (O00329 whole entry, looked up): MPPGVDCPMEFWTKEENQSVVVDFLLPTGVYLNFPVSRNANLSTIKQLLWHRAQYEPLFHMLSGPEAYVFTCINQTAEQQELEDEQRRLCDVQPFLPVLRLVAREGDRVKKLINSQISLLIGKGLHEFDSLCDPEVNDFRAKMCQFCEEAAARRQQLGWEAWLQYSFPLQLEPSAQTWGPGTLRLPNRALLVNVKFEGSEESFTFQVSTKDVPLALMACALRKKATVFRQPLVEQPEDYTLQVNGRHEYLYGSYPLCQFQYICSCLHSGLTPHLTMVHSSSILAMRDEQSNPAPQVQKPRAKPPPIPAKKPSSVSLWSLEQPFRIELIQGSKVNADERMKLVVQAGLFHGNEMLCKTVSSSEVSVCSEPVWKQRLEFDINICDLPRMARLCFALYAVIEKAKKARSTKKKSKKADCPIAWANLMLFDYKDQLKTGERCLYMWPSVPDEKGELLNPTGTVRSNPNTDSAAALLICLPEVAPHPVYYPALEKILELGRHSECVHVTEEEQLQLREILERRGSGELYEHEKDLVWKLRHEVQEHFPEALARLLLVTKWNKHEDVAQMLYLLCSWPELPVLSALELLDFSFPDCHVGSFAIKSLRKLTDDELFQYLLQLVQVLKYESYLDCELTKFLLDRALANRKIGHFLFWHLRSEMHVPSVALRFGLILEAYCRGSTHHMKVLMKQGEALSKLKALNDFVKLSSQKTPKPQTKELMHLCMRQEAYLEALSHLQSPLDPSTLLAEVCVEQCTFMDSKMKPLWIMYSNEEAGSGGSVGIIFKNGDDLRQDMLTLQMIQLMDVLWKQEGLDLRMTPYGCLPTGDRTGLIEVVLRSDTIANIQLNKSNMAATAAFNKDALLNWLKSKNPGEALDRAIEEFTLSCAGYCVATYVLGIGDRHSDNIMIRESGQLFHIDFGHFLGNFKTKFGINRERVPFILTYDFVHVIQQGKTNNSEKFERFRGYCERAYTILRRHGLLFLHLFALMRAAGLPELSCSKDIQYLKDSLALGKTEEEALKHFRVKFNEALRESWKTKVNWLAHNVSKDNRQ

Row | Structure (SMILES) | pIC50
1 | Cn1c(CN2CCN(C(C)(C)C(N)=O)CC2)nc2c(N3CCOCC3)nc(-c3cccc4[nH]ccc34)nc21 | > 6.30
2 | CCn1c(CN2CCN(C3CCOCC3)CC2)nc2c(N3CCOCC3)nc(-c3cccc4[nH]ccc34)nc21 | > 6.30
3 | c1cc(-c2nc(N3CCOCC3)c3nc(CN4CCN5CCOC[C@H]5C4)[nH]c3n2)c2cc[nH]c2c1 | > 6.30
4 | CCn1c(CN2CCC(N3CC(F)(F)C3)CC2)nc2c(N3CCOCC3)nc(-c3cccc4[nH]ccc34)nc21 | > 6.30
5 | CCn1c(CN2CCC(N(C)C)CC2)nc2c(N3CCOCC3)nc(-c3cccc4[nH]ccc34)nc21 | > 6.30
6 | CN(C)C1CCN(Cc2nc3c(N4CCOCC4)nc(-c4c(F)ccc5[nH]ccc45)nc3[nH]2)CC1 | > 6.30
7 | CCn1c(CN2CCN3CCC[C@H]3C2)nc2c(N3CCOCC3)nc(-c3cccc4[nH]ccc34)nc21 | > 6.30
8 | CCn1c(CN2CCC(n3cccn3)CC2)nc2c(N3CCOCC3)nc(-c3cccc4[nH]ccc34)nc21 | > 6.30
9 | CC(C)(C(N)=O)N1CCN(Cc2nc3c(N4CCOCC4)nc(-c4c(F)ccc5[nH]ccc45)nc3[nH]2)CC1 | > 6.30
10 | CCn1c(CN2CCN(C3CCS(=O)(=O)CC3)CC2)nc2c(N3CCOCC3)nc(-c3c(F)ccc4[nH]ccc34)nc21 | > 6.30
11 | CCn1c(CN2CCN(CC(N)=O)C(C)(C)C2)nc2c(N3CCOCC3)nc(-c3cccc4[nH]ccc34)nc21 | > 6.30
12 | CCn1c(CN2CC(N3CCOCC3)C2)nc2c(N3CCOCC3)nc(-c3cccc4[nH]ccc34)nc21 | > 6.30
13 | CCn1c(CN2CCC3(CC2)CNC(=O)C3)nc2c(N3CCOCC3)nc(-c3cccc4[nH]ccc34)nc21 | > 6.30
14 | CCn1c(CN2CCc3ccccc3C2)nc2c(N3CCOCC3)nc(-c3cccc4[nH]ccc34)nc21 | > 6.30
15 | CCn1c(CN2CCN(C3CCS(=O)(=O)CC3)CC2)nc2c(N3CCOCC3)nc(-c3cccc4[nH]ccc34)nc21 | > 6.30
16 | CCn1c(CN2CCC(C(=O)O)(N3CCOCC3)CC2)nc2c(N3CCOCC3)nc(-c3c(F)ccc4[nH]ccc34)nc21 | > 6.30
17 | CCn1c(CN2CCC(N3CCOCC3=O)CC2)nc2c(N3CCOCC3)nc(-c3cccc4[nH]ccc34)nc21 | > 6.30
18 | CCn1c(CN2CCOC(C)(C)C2)nc2c(N3CCOCC3)nc(-c3cccc4[nH]ccc34)nc21 | > 6.30
19 | CCn1c(CN2CCC(c3cc[nH]n3)CC2)nc2c(N3CCOCC3)nc(-c3cccc4[nH]ccc34)nc21 | > 6.30
20 | CCn1c(CN2CCC(N3CCOCC3)CC2)nc2c(N3CCOCC3)nc(-c3cccc4[nH]ccc34)nc21 | > 6.30
21 | CCn1c(CN2CCC(N3CCCCC3=O)CC2)nc2c(N3CCOCC3)nc(-c3cccc4[nH]ccc34)nc21 | > 6.30
22 | CCn1c(CN2CC(=O)NC(C)(C)C2)nc2c(N3CCOCC3)nc(-c3cccc4[nH]ccc34)nc21 | > 6.30
23 | CC(C)(C(N)=O)N1CCN(Cc2nc3c(N4CCOCC4)nc(-c4cccc5[nH]ccc45)nc3[nH]2)CC1 | > 6.30
24 | CCn1c(CN2CCC(N3CCOC3=O)CC2)nc2c(N3CCOCC3)nc(-c3cccc4[nH]ccc34)nc21 | > 6.30
25 | CCn1c(CN2CCC(N3CCC3=O)CC2)nc2c(N3CCOCC3)nc(-c3cccc4[nH]ccc34)nc21 | > 6.30
26 | CCn1c(CN2CCN(CC(N)=O)[C@@H](C(C)C)C2)nc2c(N3CCOCC3)nc(-c3cccc4[nH]ccc34)nc21 | > 6.30
27 | CCn1c(CN2CCC(N(C)S(C)(=O)=O)CC2)nc2c(N3CCOCC3)nc(-c3cccc4[nH]ccc34)nc21 | > 6.30

Second part, the compound after the results:

Row | pIC50 | Structure (SMILES)
28 | > 6.30 | CCn1c(CN2CCC(C)(C(N)=O)CC2)nc2c(N3CCOCC3)nc(-c3c(F)ccc4[nH]ccc34)nc21
29 | > 6.30 | CCn1c(CN2CCN(C(C)(C)C(N)=O)CC2)nc2c(N3CCOCC3)nc(-c3cccc4[nH]ccc34)nc21
30 | > 6.30 | Cn1c(CN2CCN(C(C)(C)C(N)=O)CC2)nc2c(N3CCOCC3)nc(-c3c(F)ccc4[nH]ccc34)nc21
31 | > 6.30 | CCn1c(CN2CCN3CCOC[C@H]3C2)nc2c(N3CCOCC3)nc(-c3c(F)ccc4[nH]ccc34)nc21
32 | > 6.30 | CCn1c(CN2CCC(N(C)C)CC2)nc2c(N3CCOCC3)nc(-c3c(F)ccc4[nH]ccc34)nc21
33 | > 6.30 | CCn1c(CN2CCC(N(C)S(C)(=O)=O)CC2)nc2c(N3CCOCC3)nc(-c3c(F)ccc4[nH]ccc34)nc21
34 | > 6.30 | CCn1c(CN2C[C@@H](C)N(CC(N)=O)[C@@H](C)C2)nc2c(N3CCOCC3)nc(-c3c(F)ccc4[nH]ccc34)nc21
35 | > 6.30 | CCn1c(CN2CCC(N3CCCCC3=O)CC2)nc2c(N3CCOCC3)nc(-c3c(F)ccc4[nH]ccc34)nc21
36 | > 6.30 | CCn1c(CN2CCC3(CC2)CNC(=O)C3)nc2c(N3CCOCC3)nc(-c3c(F)ccc4[nH]ccc34)nc21
37 | > 6.30 | CCn1c(CN2CC(NC(C)(C)C(N)=O)C2)nc2c(N3CCOCC3)nc(-c3cccc4[nH]ccc34)nc21
38 | > 6.30 | CCn1c(CN2CCC(N3CCC3=O)CC2)nc2c(N3CCOCC3)nc(-c3c(F)ccc4[nH]ccc34)nc21
39 | > 6.30 | CCn1c(CN2CCN(CC(N)=O)[C@@H](C(C)C)C2)nc2c(N3CCOCC3)nc(-c3c(F)ccc4[nH]ccc34)nc21
40 | > 6.30 | CCn1c(CN2CCC(N3CCC3)CC2)nc2c(N3CCOCC3)nc(-c3c(F)ccc4[nH]ccc34)nc21
41 | > 6.30 | CCn1c(CN2CCC(C(N)=O)CC2)nc2c(N3CCOCC3)nc(-c3c(F)ccc4[nH]ccc34)nc21
42 | > 6.30 | CCn1c(CN2CCN(CC(F)(F)F)CC2)nc2c(N3CCOCC3)nc(-c3c(F)ccc4[nH]ccc34)nc21
43 | > 6.30 | CCn1c(CN2CCOC(C)(C)C2)nc2c(N3CCOCC3)nc(-c3c(F)ccc4[nH]ccc34)nc21
44 | > 6.30 | CCn1c(CN2CCC(N3CCCC3=O)CC2)nc2c(N3CCOCC3)nc(-c3c(F)ccc4[nH]ccc34)nc21
45 | > 6.30 | CC(C)(C(N)=O)N1CCN(Cc2nc3c(N4CCOCC4)nc(-c4c(F)ccc5[nH]ccc45)nc3n2CCO)CC1
46 | > 6.30 | CCn1c(CN2CC[C@H](NC(C)(C)C(N)=O)C2)nc2c(N3CCOCC3)nc(-c3c(F)ccc4[nH]ccc34)nc21
47 | > 6.30 | CCn1c(CN2CC(NC(C)(C)C(N)=O)C2)nc2c(N3CCOCC3)nc(-c3c(F)ccc4[nH]ccc34)nc21
48 | > 6.30 | CCn1c(CN2CC(N(C)C(C)(C)C(N)=O)C2)nc2c(N3CCOCC3)nc(-c3c(F)ccc4[nH]ccc34)nc21
49 | > 6.30 | CCn1c(CN2CC(N(C)C(C)(C)C(N)=O)C2)nc2c(N3CCOCC3)nc(-c3cccc4[nH]ccc34)nc21
50 | > 6.30 | CCn1c(CN2CCN(C3CCOCC3)CC2)nc2c(N3CCOCC3)nc(-c3c(F)ccc4[nH]ccc34)nc21
51 | > 6.30 | CCn1c(CN2CCC3(CCNC3=O)CC2)nc2c(N3CCOCC3)nc(-c3c(F)ccc4[nH]ccc34)nc21
52 | > 6.30 | CCn1c(CN2CCC(n3cccn3)CC2)nc2c(N3CCOCC3)nc(-c3c(F)ccc4[nH]ccc34)nc21
53 | > 6.30 | CCn1c(CN2CCN3CCC[C@H]3C2)nc2c(N3CCOCC3)nc(-c3c(F)ccc4[nH]ccc34)nc21
54 | > 6.30 | CCn1c(CN2CCC(c3cc[nH]n3)CC2)nc2c(N3CCOCC3)nc(-c3c(F)ccc4[nH]ccc34)nc21
55 | > 6.30 | CCn1c(CN2C[C@@H](C)N(CC(N)=O)[C@@H](C)C2)nc2c(N3CCOCC3)nc(-c3cccc4[nH]ccc34)nc21
56 | > 6.30 | CCn1c(CN2CCC(N3CCOCC3)CC2)nc2c(N3CCOCC3)nc(-c3c(F)ccc4[nH]ccc34)nc21
57 | > 6.30 | CCn1c(CN2CCc3ccccc3C2)nc2c(N3CCOCC3)nc(-c3c(F)ccc4[nH]ccc34)nc21
